Format in all cases: cell-based, human
In assay [1] the test system is HCT-116 cells. In words: Inhibition test for sphere-forming ability of cancer cells (Test Example 1), HCT-116. Conditions: for IC50: concentration for 50% inhibition of cell proliferation, read-out: IC50 (μmol/L) HCT-116 (Sphere IC50 value); for inhibitory effect on the sphere-forming ability of cancer cells: Test Example 1, summary in words, cell line not given (HCT-116, HT-29, FaDu tested). In outline:
(§1)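 Sphere formation, non-adherent, serum-free: 350-800 cells/well, DMEM/F12 + 2% B27, 20 ng/mL EGF, 10 ng/mL bFGF, 5 μg/mL insulin. Compound in 0.1% DMSO final, 4 d. CellTiter-Glo luminescence; IC50 (μmol/L) for 50% inhibition of proliferation.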

Assay [2] relates to HT-29 cells. Briefly: Inhibition test for sphere-forming ability of cancer cells (Test Example 1), HT-29. To be noted: for IC50: concentration for 50% inhibition of cell proliferation, read-out: IC50 (μmol/L) HT-29 (Sphere IC50 value). The method in brief:
as §1

For assay [3], the system named is FaDu cells. Briefly: Inhibition test for sphere-forming ability of cancer cells (Test Example 1), FaDu. Conditions: for IC50: concentration for 50% inhibition of cell proliferation, read-out: IC50 (μmol/L) FaDu (Sphere IC50 value). In outline:
as §1

Assay [4] deals with HCT-116 cells. In words: Inhibition test for sphere-forming ability of cancer cells in the presence of BSA (Test Example 2), HCT-116. To be noted: for IC50: HCT-116 cells, in the presence of 5% BSA, cultured 4 days; for inhibitory effect on the sphere-forming ability of cancer cells: Test Example 2, in the presence of 5% BSA, summary in words, cell line not given (HCT-116, HT-29, FaDu tested). How it is done:
Human colorectal cancer-derived HCT-116 cells, human colon-adenocarcinoma-derived HT-29 cells, and human pharyngeal cancer-derived FaDu cells were available from American Type Culture Collection (ATCC). HCT-116 cells and HT-29 cells were cultured at 37° C. under 5% CO2 using the McCoy's 5a medium containing 10% fetal bovine serum (FBS) and 1% penicillin/streptomycin, and FaDu cells were cultured at 37° C. under 5% CO2 using the MEM medium containing 10% FBS, 1% non-essential amino acid, 1% sodium pyruvate, 5% bovine serum albumin (BSA), and 1% penicillin/streptomycin. HCT-116 cells, HT-29 cells, and FaDu cells were seeded in a 384 Well Black Clear Bottom Ultra-Low Attachment Microplate (Corning Cat. No. 3827) in an amount of 350-800 cells/well using the DMEM/F12 medium containing 2% B27 supplement (GIBCO), 20 ng/mL epidermal growth factor (EGF) (peprotech), 10 ng/mL basic fibroblast growth factor (bFGF) (peprotech), 5 μg/mL insulin (Sigma), 5% bovine serum albumin (BSA), and 1% penicillin/streptomycin. Each test compound was added into each well to adjust the final concentration of DMSO to 0.1%, and the cells were cultured for 4 days. The number of viable cells in each well was then measured with CellTiter-Glo® Luminescent Cell Viability Assay (Promega) to calculate the concentration of each test compound for 50% inhibition of cell proliferation (Sphere IC50 value; μmol/L).
The experiment of Test Example 2 was performed for each compound of each Example.
The concentration of each test compound for 50% inhibition of cell proliferation (Sphere IC50 value; μmol/L) is shown in the following Table.

Setting [5] is: Homo sapiens, read-out: (100%-inhibition rate of cell proliferation) at 1 μmol/L, 1 μmol/L, value with %.

Read-outs that look alike come from different tables or passages of the source.

As for `COc1ccc(/C=C/C(=O)Nc2cn(Cc3cccc(Cl)c3)cn2)cc1OCCO` [Example 33, (2E)-N-[1-(3-chlorobenzyl)-1H-imidazol-4-yl]-3-[3-(2-hydroxyethoxy)-4-methoxyphenyl]prop-2-enamide], the IC50 was 0.06 µmol/L in assay [1] (Homo sapiens, HCT-116 cells); 0.01 µmol/L in assay [2] (Homo sapiens); less than 0.01 µmol/L in assay [3] (Homo sapiens); 590 nM in assay [4] (Homo sapiens, HCT-116, 96 h). For the same molecule, the “inhibitory effect on the sphere-forming ability of cancer cells” value (“inhibitory effect” for short) in assay [1] and in assay [4] was “particularly potent inhibitory effect” each time.
As to `COc1ccc(/C=C/C(=O)Nc2cn(Cc3cccc(C(F)(F)F)c3)cn2)cc1O` [Example 31, (E)-3-(3-Hydroxy-4-methoxyphenyl)-N-(1-(3-(trifluoromethyl)benzyl)-1H-imidazol-4-yl)acrylamide], the IC50 in assay [1] (Homo sapiens, HCT-116 cells) was 0.84 µmol/L; in assay [2] (Homo sapiens), 0.65 µmol/L; in assay [3] (Homo sapiens), less than 0.01 µmol/L; in assay [4] (Homo sapiens, HCT-116, 96 h), 90 nM. Further, the “inhibitory effect” value in assay [4] is “particularly potent inhibitory effect”.
For the molecule `CS(=O)(=O)Nc1ccc(/C=C/C(=O)Nc2cn(Cc3cccc(Cl)c3)cn2)cc1` [Example 4, (E)-N-(1-(3-Chlorobenzyl)-1H-imidazol-4-yl)-3-(4-(methylsulfonamide)phenyl)acrylamide], the IC50 stood at 5.79 µmol/L in assay [1] (Homo sapiens, HCT-116 cells); 0.69 µmol/L in assay [2] (Homo sapiens); 0.67 µmol/L in assay [3] (Homo sapiens); 6400 nM in assay [4] (Homo sapiens, HCT-116, 96 h).
Turning to `COc1ccc(C(=O)Nc2cn(Cc3ccc(F)c(C(F)(F)F)c3)cn2)cc1OC` [Example 161], the IC50 is 0.04 µmol/L in assay [1] (HCT-116 cells), less than 0.01 µmol/L in assay [3] and 410 nM in assay [4]. In addition, the “inhibitory effect” value in assay [1] is listed as “particularly potent inhibitory effect”.
With `N#Cc1ccc(/C=C/C(=O)Nc2cn(Cc3cccc(Cl)c3)cn2)cc1` [Example 22], the IC50 in assay [1] (Homo sapiens, HCT-116 cells) was 0.08 µmol/L; in assay [2] (Homo sapiens) it was less than 0.01 µmol/L; in assay [3] (Homo sapiens), 0.06 µmol/L; in assay [4] (Homo sapiens, HCT-116, 96 h), 640 nM. Further, the “inhibitory effect” value in assay [1] and in assay [4] was “particularly potent inhibitory effect” in each case.
Turning to `CC(=O)Nc1ccc(/C=C/C(=O)Nc2cn(Cc3cccc(Cl)c3)cn2)cc1` [Example 9, (2E)-3-[4-(acetylamino)phenyl]-N-[1-(3-chlorobenzyl)-1H-imidazol-4-yl]prop-2-enamide], the IC50 in assay [1] (Homo sapiens, HCT-116 cells) amounted to 0.22 µmol/L; in assay [2] (Homo sapiens), 0.03 µmol/L; in assay [3] (Homo sapiens), 0.03 µmol/L; in assay [4] (Homo sapiens, HCT-116, 96 h) it was 910 nM. Also, the “inhibitory effect” value in assay [1] was “particularly potent inhibitory effect”.
As for `COc1ccc(C(=O)Nc2cn(Cc3ccc(F)c(Cl)c3)cn2)cc1OC` [Example 160], the figures for the IC50 in assay [1] (HCT-116 cells), in assay [3] and in assay [4] were 0.07 µmol/L, 0.07 µmol/L and 610 nM, respectively. In addition, the “inhibitory effect” value in assay [1] is on record as “particularly potent inhibitory effect”.
Regarding `COc1ccc(C(=O)Nc2cn(Cc3ccc(Cl)cc3)cn2)cc1OC` [Example 158], the IC50 in assay [1] (HCT-116 cells) was determined as 0.57 µmol/L; in assay [3] it was 0.5 µmol/L; in assay [4] it was 4220 nM.
In the case of `Cn1cc(C(=O)Nc2cn(Cc3cccc(C(F)(F)F)c3)cn2)ccc1=O` [Example 242, 1-Methyl-6-oxo-N-{1-[3-(trifluoromethyl)benzyl]-1H-imidazol-4-yl}-1,6-dihydropyridine-3-carboxamide], the IC50 in assay [1] (Homo sapiens, HCT-116 cells) was 0.38 µmol/L; in assay [2] (Homo sapiens), 0.29 µmol/L; in assay [3] (Homo sapiens) it was 0.11 µmol/L; in assay [4] (Homo sapiens, HCT-116, 96 h) it was 2140 nM. Moreover, the “inhibitory effect” value in assay [1] is “particularly potent inhibitory effect”.
Consider `CCOc1cccc(/C=C/C(=O)Nc2cn(Cc3cccc(Cl)c3)cn2)c1` [Example 64], for which the IC50 in assay [1] (HCT-116 cells) is 9.79 µmol/L; in assay [2], 0.69 µmol/L; in assay [3] it was 0.59 µmol/L.
The matching figures for `O=C(Nc1cn(Cc2cccc(C(F)(F)F)c2)cn1)c1ccc2cccnc2c1` [Example 195]: more than 10 µmol/L, 5.55 µmol/L and more than 10 µmol/L.
Take `O=C(Nc1cn(Cc2cccc(Cl)c2)cn1)c1cncc(Br)c1` [Example 283]: the viability at 1 µM in assay [1] (Homo sapiens, read-out: (100%-inhibition rate of cell proliferation) at 1 μmol/L, HCT-116 cells, 1 μmol/L, value with %) is 75.6%; in assay [2] (setting [5]) it was 44.7%; in assay [3] (setting [5]), 50%.
`COc1ccc(/C=C/C(=O)Nc2cn(Cc3cccc(Cl)c3)cn2)cc1OC` [Example 66]: the IC50 was 0.09 µmol/L in assay [1] (HCT-116 cells), 0.07 µmol/L in assay [2] and 0.06 µmol/L in assay [3]. The “inhibitory effect” value in assay [1] is given as “particularly potent inhibitory effect”.
Consider `COc1ccc(C(=O)Nc2cn(Cc3cc(F)cc(Cl)c3)cn2)cc1OC` [Example 159], for which the IC50 in assay [1] (HCT-116 cells) amounted to 0.06 µmol/L; in assay [3], 0.07 µmol/L; in assay [4], 610 nM. Further, the “inhibitory effect” value in assay [1] is recorded as “particularly potent inhibitory effect”.
As to `COc1cc(C(=O)Nc2cn(Cc3cccc(Cl)c3)cn2)cnc1OC` [Example 218], the results for the IC50 in assay [1] (HCT-116 cells), in assay [2] and in assay [3] were 0.58 µmol/L, 0.06 µmol/L and 0.08 µmol/L, respectively. Further, the “inhibitory effect” value in assay [1] is “particularly potent inhibitory effect”.
As to `O=C(/C=C/c1cccc(F)c1)Nc1cn(Cc2cccc(Cl)c2)cn1` [Example 57], the values for the IC50 in assay [1] (HCT-116 cells), in assay [2] and in assay [3] were 0.94 µmol/L, 3.3 µmol/L and 4.36 µmol/L, respectively.
With `CCOc1ccc(/C=C/C(=O)Nc2cn(Cc3cccc(C(F)(F)F)c3)cn2)cn1` [Example 107], the IC50 is more than 10 µmol/L in assay [1] (Homo sapiens, HCT-116 cells); 0.04 µmol/L in assay [2] (Homo sapiens); 0.07 µmol/L in assay [3] (Homo sapiens).
`Nc1ccc(C(=O)Nc2cn(Cc3cccc(Cl)c3)cn2)cn1` [Example 224]: the IC50 in assay [1] (HCT-116 cells) is 6.71 µmol/L; in assay [2] it was 5.51 µmol/L; in assay [3], 5.44 µmol/L.
The matching figures for `O=C(/C=C/c1cccc(C(F)(F)F)c1)Nc1cn(Cc2cccc(Cl)c2)cn1` [Example 60]: more than 10 µmol/L, 9.79 µmol/L and 8.2 µmol/L.
For `COc1cc(/C=C/C(=O)Nc2cn(Cc3cccc(Cl)c3)cn2)cc(OC)c1O` [Example 67] the same measures were 7.34 µmol/L, 8.37 µmol/L and 0.79 µmol/L.
Take `COc1ccc(/C=C/C(=O)Nc2cn(Cc3cccc(Cl)c3)cn2)cc1O` [Example 23, (E)-N-(1-(3-Chlorobenzyl)-1H-imidazol-4-yl)-3-(3-hydroxy-4-methoxyphenyl)acrylamide]: the IC50 is 0.61 µmol/L in assay [1] (Homo sapiens, HCT-116 cells); 0.47 µmol/L in assay [2] (Homo sapiens); less than 0.01 µmol/L in assay [3] (Homo sapiens); 370 nM in assay [4] (Homo sapiens, HCT-116, 96 h). In addition, in assay [4], the “inhibitory effect” value is on record as “particularly potent inhibitory effect”.
For `O=C(Nc1cn(Cc2cc(F)c(F)c(F)c2)cn1)c1ccc(CO)cc1` [Example 175], the IC50 in assay [1] (HCT-116 cells) stood at 0.29 µmol/L; in assay [3] it was 0.22 µmol/L; in assay [4], 770 nM.
For the molecule `CN(C)CCOc1ccc(C(=O)Nc2cn(Cc3cccc(Cl)c3)cn2)cn1` [Example 205], the IC50 in assay [1] (HCT-116 cells) was more than 10 µmol/L; in assay [2], 2.39 µmol/L; in assay [3], 6.39 µmol/L.
With `COc1ccc(C(=O)Nc2cn(Cc3cc(F)cc(C(F)(F)F)c3)cn2)cc1OC` [Example 162], the IC50 in assay [1] (HCT-116 cells) turned out to be 0.06 µmol/L; in assay [3], 0.06 µmol/L; in assay [4], 510 nM. Besides, the “inhibitory effect” value in assay [1] is listed as “particularly potent inhibitory effect”.
As to `O=C(/C=C/c1ccc2[nH]ccc2c1)Nc1cn(Cc2cccc(Cl)c2)cn1` [Example 47, (E)-N-(1-(3-Chlorobenzyl)-1H-imidazol-4-yl)-3-(1H-indol-5-yl)acrylamide], the IC50 came to 0.89 µmol/L in assay [1] (Homo sapiens, HCT-116 cells); 0.7 µmol/L in assay [2] (Homo sapiens); 0.76 µmol/L in assay [3] (Homo sapiens).

Source of the values: patent US10898469B2, “Imidazolylamide derivative” (Sumitomo Dainippon Pharma Co., Ltd., priority 2016, dated 2021).
